Data published in patent US5385899A, “Aminoalkyl-substituted 5,6-dihydro-dibenz[b,e]azepine-6,11-dione-11-oximes” (Bayer Aktiengesellschaft, priority 1991, dated 1995).
Read-outs that look alike come from different tables or passages of the source.

System: HIV
Assay: HIV infection in cell culture: suppression of virus-induced syncytia (PBLs or H9 cells)
Format: cell-based
Conditions: read-out: IC50 (suppression of 50% of virus-induced syncytia)
Method: The HIV test was carried out with slight modifications according to the method of Pauwels et al. [cf. Journal of Virological Methods 20, (1988), 309-321].
Normal human blood lyphocytes (PBLs) were concentrated by means of Ficoll-Hypaque and stimulated with phytohaemagglutinin (90 μg/ml) and interleukin-2 (40 U/ml) in RPMI 1640 and 20% foetal calf serum. For infection with the infectious HIV, PBLs were pelleted and the cell pellet was then suspended in 1 ml of HIV virus adsorption solution and incubated for 1 hour at 37° C.
Alternatively, HIV-susceptible H9 cells were employed instead of normal human blood lymphocytes for testing the antiviral effects of the compounds according to the invention.
The virus adsorption solution was centrifuged and the infected cell pellet was taken up in growth medium so that a concentration of 1×10^5 cells per ml was established. The cells infected in this way were pipetted into the wells of 96-well microtiter plates to give 1×10^4 cells/well.
The first vertical row of the microtiter plate contained only growth medium and cells which had not been infected, but otherwise treated exactly as described above (cell control). The second vertical row of the microtiter plate contained only HIV-infected cells (virus control) in growth medium. The other wells contained the compounds according to the invention in differing concentrations, starting from the wells of the 3rd vertical row of the microtiter plate, from which the test substances were diluted 2^10 times in 2-fold steps.
The test batches were incubated at 37° C. until, in the untreated virus control, the syncytia formation typical of HIV occurred (between day 3 and 6 after infection), which was then microscopically assessed. Under these test conditions, in the untreated virus control about 20-50 syncytia resulted, while the untreated cell control contained no syncytia.
The IC50 values were determined as the concentration of the treated and infected cells at which 50% (about 10-20 syncytia) of the virus-induced syncytia were suppressed by treatment with the compound according to the invention.

[1] = Human immunodeficiency virus 1, 72 h, HIV-infected PBLs or alternatively H9 cells, syncytia assessed microscopically between day 3 and 6 after infection, 37° C.

SMILES: CN(C)CCON=c1c2cc(Cl)ccc2[nH]c(=O)c2ccccc12 (mixture of isomers) [Example 1, (E/Z)-2-Chloro-11-(2-dimethylaminoethoxyimino)-6-oxo-5,6-dihydro-11H-dibenz[b,e] azepine]
- IC50 [1]: 380 nM

SMILES: O=c1[nH]c2ccc(Cl)cc2c(=NOCCN2CCOCC2)c2ccccc12 [Example 3]
- IC50 [1]: 1500 nM

SMILES: Cc1ccnc2c1NC(=O)c1cccnc1N2C1CC1 [BIRG 587, reference compound]
- IC50 (Human immunodeficiency virus 1, H9, 72 h): 90 nM
